According to ChEMBL document CHEMBL1201862, “PubChem BioAssay data set” (2004):
“And” between values parts separate entries of the source, which are not always exact repeats. Identical values can stand only once.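 These data come from cells grown in 96-well plates and exposed to compound for 48 hours at five concentrations. Here, GI50 denotes the concentration required for 50% inhibition of growth.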 The source made the active and inactive calls. Rule as the data show it: active = GI50 up to about 1.1 µM and inactive = higher. Square brackets hold non-standard residues; d marks the D form. Peptide text beside a SMILES is read from it. * marks the point of attachment. Phe(4-NO2) = N[CH](Cc1ccc([N+](=O)[O-])cc1)C(=O)O; Cbz = O=C(OCc1ccccc1)*

What was measured:
Assay in all cases: inhibition of tumour cell growth, NCI panel, 48 h
NCI-H23 = tested on: NCI-H23
RPMI-8226 = tested on: RPMI-8226
DU-145 = tested on: DU-145
OVCAR-3 = tested on: OVCAR-3
MOLT-4 = tested on: MOLT-4
SNB-19 = tested on: SNB-19
SF-539 = tested on: SF-539
HCT-15 = tested on: HCT-15
OVCAR-4 = tested on: OVCAR-4
NCI/ADR-RES = tested on: NCI/ADR-RES
U-251 = tested on: U-251
MDA-N = tested on: MDA-N
SK-MEL-5 = tested on: SK-MEL-5
NCI-H460 = tested on: NCI-H460
OVCAR-5 = tested on: OVCAR-5
SK-MEL-28 = tested on: SK-MEL-28
M14 = tested on: M14
MCF7 = tested on: MCF7
HOP-92 = tested on: HOP-92
UACC-257 = tested on: UACC-257

| Structure (SMILES) | GI50 (NCI-H23) | GI50 (RPMI-8226) | GI50 (DU-145) | GI50 (OVCAR-3) | GI50 (MOLT-4) | GI50 (SNB-19) | GI50 (SF-539) | GI50 (HCT-15) [µM] | GI50 (OVCAR-4) | GI50 (NCI/ADR-RES) | GI50 (U-251) | GI50 (MDA-N) | GI50 (SK-MEL-5) | GI50 (NCI-H460) | GI50 (OVCAR-5) | GI50 (SK-MEL-28) | GI50 (M14) | GI50 (MCF7) | GI50 (HOP-92) | GI50 (UACC-257) |
| --- | --- | --- | --- | --- | --- | --- | --- | --- | --- | --- | --- | --- | --- | --- | --- | --- | --- | --- | --- | --- |
| CON(C)c1nc(N(C)OC)nc(N(C)OC)n1 | > 10 µM (inactive) | > 10 µM (inactive) | > 10 µM (inactive) | > 10 µM (inactive) | > 10 µM (inactive) | > 10 µM (inactive) | > 10 µM (inactive) | > 10 | > 10 µM (inactive) | > 10 µM (inactive) | > 10 µM (inactive) | > 10 µM (inactive) | > 10 µM (inactive) | > 10 µM (inactive) | > 10 µM (inactive) | > 10 µM (inactive) | > 10 µM (inactive) | > 10 µM (inactive) | – | – |
| COC(=O)C(C(=O)C(=O)Nc1nnc(S)[nH]1)c1csc(-n2nc(-c3ccccc3)cc2-c2ccccc2)n1 (stereo not given) | > 100 µM (inactive) | > 100 µM (inactive) | – | > 100 µM (inactive) | > 100 µM (inactive) | > 100 µM (inactive) | – | > 100 | > 100 µM (inactive) | – | > 100 µM (inactive) | – | – | > 100 µM (inactive) | > 100 µM (inactive) | – | > 100 µM (inactive) | – | 44.5 µM (inactive) | > 100 µM (inactive) |
| N#CN=C(NCCO)NCCO | – | > 100 µM (inactive) | – | > 100 µM (inactive) | > 100 µM (inactive) | > 100 µM (inactive) | > 100 µM (inactive) | > 100 | > 100 µM (inactive) | – | > 100 µM (inactive) | – | – | > 100 µM (inactive) | > 100 µM (inactive) | > 100 µM (inactive) | > 100 µM (inactive) | – | – | > 100 µM (inactive) |
| O=C(N/N=C/c1cc(Br)cc(Br)c1O)c1ccccc1O | 0.52 µM (active) | – | – | 0.273 µM (active) | 0.575 µM (active) | 0.912 µM (active) | 0.61 µM (active) | 0.422 | 0.267 µM (active) | – | 0.399 µM (active) | – | 1.07 µM (active) | 0.64 µM (active) | 0.723 µM (active) | 0.708 µM (active) | 0.687 µM (active) | – | 1.2 µM (inactive) | 2.26 µM (inactive) |
| O=C(NC1C=Nc2ccc([N+](=O)[O-])cc2NC1=O)c1cc(Cl)cc([N+](=O)[O-])c1 (stereo not given) | > 100 µM (inactive) | 44.2 µM (inactive) | – | – | 41.6 µM (inactive) | > 100 µM (inactive) | > 100 µM (inactive) | > 100 | > 100 µM (inactive) | – | > 100 µM (inactive) | – | > 100 µM (inactive) | > 100 µM (inactive) | > 100 µM (inactive) | > 100 µM (inactive) | > 100 µM (inactive) | – | > 100 µM (inactive) | > 100 µM (inactive) |
| N#Cc1c(OCCF)c2ccccc2n2c1nc1ccccc12 | 69 µM (inactive) | > 100 µM (inactive) | 79.8 µM (inactive) | 67 µM (inactive) | 27.8 µM (inactive) | 29.2 µM (inactive) | 16.9 µM (inactive) | 32.7 | 32.3 µM (inactive) | 45.3 µM (inactive) | 37.6 µM (inactive) | > 100 µM (inactive) | 49.5 µM (inactive) | 21.7 µM (inactive) | > 100 µM (inactive) | > 100 µM (inactive) | > 100 µM (inactive) | 16.6 µM (inactive) | – | 93.3 µM (inactive) |
| Cc1cc(C)nc(NS(=O)(=O)c2ccc(NNC(=O)c3cccc4c(=O)c5ccccc5[nH]c34)cc2)n1 | 63 µM (inactive) | 57.5 µM (inactive) | > 100 µM (inactive) | 37.3 µM (inactive) | 49.8 µM (inactive) | 88.5 µM (inactive) | > 100 µM (inactive) | 48.8 | 72.3 µM (inactive) | > 100 µM (inactive) | 25.2 µM (inactive) | 75.9 µM (inactive) | 52.1 µM (inactive) | 67.6 µM (inactive) | 21.5 µM (inactive) | 29.2 µM (inactive) | > 100 µM (inactive) | > 100 µM (inactive) | 11.6 µM (inactive) | > 100 µM (inactive) |
| COc1nc(C#CCC(C)O)nc(OC)n1 (stereo not given) | 19.9 µM (inactive) | – | 22.9 µM (inactive) | 19.5 µM (inactive) | 33.2 µM (inactive) | > 100 µM (inactive) | 26 µM (inactive) | 18.6 | 18.8 µM (inactive) | 21 µM (inactive) | 29.6 µM (inactive) | 30.6 µM (inactive) | 18.8 µM (inactive) | 39.4 µM (inactive) | 19.1 µM (inactive) | 31.6 µM (inactive) | 16.9 µM (inactive) | 13.1 µM (inactive) | – | 30.9 µM (inactive) |
| Oc1ccc2ccccc2c1/N=N/c1ccccc1 | > 100 µM (inactive) | > 100 µM (inactive) | > 100 µM (inactive) | 51.6 µM (inactive) | > 100 µM (inactive) | > 100 µM (inactive) and > 72.8 µM (inactive) | > 100 µM (inactive) | > 100 | > 70.5 µM (inactive) and 45.2 µM (inactive) | > 100 µM (inactive) | 51.9 µM (inactive) and > 56 µM (inactive) | > 100 µM (inactive) | > 100 µM (inactive) | > 100 µM (inactive) | > 100 µM (inactive) | > 100 µM (inactive) | > 100 µM (inactive) | > 100 µM (inactive) | 73.5 µM (inactive) | > 100 µM (inactive) |
| CCN1CCC(O)(C(C(=O)O)c2ccccc2)CC1 (stereo not given) | > 100 µM (inactive) | > 100 µM (inactive) | > 100 µM (inactive) | > 100 µM (inactive) | – | > 100 µM (inactive) | – | > 100 | > 100 µM (inactive) | > 100 µM (inactive) | > 100 µM (inactive) | – | > 100 µM (inactive) | > 100 µM (inactive) | > 100 µM (inactive) | > 100 µM (inactive) | > 100 µM (inactive) | > 100 µM (inactive) | – | > 100 µM (inactive) |
| CCOC(=O)CCC(NC(=O)OCc1ccccc1)C(=O)NC(CCC(=O)OCC)C(=O)NC(CCC(=O)OCC)C(=O)NC(CCC(=O)OCC)C(=O)NC(CCC(=O)OCC)C(=O)NC(Cc1ccc([N+](=O)[O-])cc1)C(=O)NC(CCC(=O)OCC)C(=O)NC(CCC(=O)OCC)C(=O)NC(CCC(=O)OCC)C(=O)NC(CCC(=O)OCC)C(=O)NC(CCC(=O)OCC)C(=O)OCC (stereo not given) (Cbz-E(OEt)E(OEt)E(OEt)E(OEt)E(OEt)[Phe(4-NO2)]E(OEt)E(OEt)E(OEt)E(OEt)E(OEt)-OEt; configuration not given here) | > 50 µM (inactive) | > 50 µM (inactive) | > 50 µM (inactive) | > 50 µM (inactive) | > 50 µM (inactive) | > 50 µM (inactive) | > 50 µM (inactive) | > 50 | 23 µM (inactive) | > 50 µM (inactive) | > 50 µM (inactive) | > 50 µM (inactive) | > 50 µM (inactive) | > 50 µM (inactive) | > 50 µM (inactive) | > 50 µM (inactive) | 16.8 µM (inactive) | > 50 µM (inactive) | – | – |
| COc1ccc(/C(Cl)=C(\C=O)c2ccc(F)cc2)cc1OC | 16.6 µM (inactive) | 6.64 µM (inactive) | – | 22.8 µM (inactive) | 9.91 µM (inactive) | 37.4 µM (inactive) | 23 µM (inactive) | 12.8 | – | – | 15.6 µM (inactive) | – | 15.3 µM (inactive) | 19.3 µM (inactive) | – | 24 µM (inactive) | 17.6 µM (inactive) | – | 6.32 µM (inactive) | – |
| CC1=C2C(O)C(C(C)C(=O)NC(C)C)CCC2(C)C=CC1=O (stereo not given) | > 100 µM (inactive) | > 100 µM (inactive) | – | > 100 µM (inactive) | > 100 µM (inactive) | > 100 µM (inactive) | > 100 µM (inactive) | > 100 | > 100 µM (inactive) | > 100 µM (inactive) | > 100 µM (inactive) | – | > 100 µM (inactive) | > 100 µM (inactive) | > 100 µM (inactive) | > 100 µM (inactive) | – | > 100 µM (inactive) | > 100 µM (inactive) | > 100 µM (inactive) |
